Measured values taken from patent publication US20260258050A1, “IMMUNOMODULATOR” (HITGEN INC., priority 2023, published 2026).

Key:
Human IL-17A [1] = target: T1, Human IL-17A (Homo sapiens, UniProt Q16552); assay: Inhibition of human IL-17A protein-induced GROα/CXCL1 production in HT-29 cells; type: cell-based; design: purchased R&D 317-ILB; host or cells: added exogenously to HT-29 cells; details: 30 ng/mL human IL-17A protein, 48 h, GROα in supernatant by ELISA kit, read-out: Inhibitory IC50 of compounds on HT-29 cell GROα/CXCL1
T1 sequence (Q16552 20-155 limits assumed): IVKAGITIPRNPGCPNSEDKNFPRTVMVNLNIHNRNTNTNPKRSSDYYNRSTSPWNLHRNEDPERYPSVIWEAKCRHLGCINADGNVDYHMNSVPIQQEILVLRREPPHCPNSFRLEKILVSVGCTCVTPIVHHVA
Procedure, shortened: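 Compound dilutions were preincubated 1 h at 37 °C with 30 ng/mL human IL-17A, then added to HT-29 cells (5×10^4/well) for 48 h at 37 °C. GROα in supernatant quantified by ELISA; IC50 for inhibition of its production. Positive control: IL-17A antibody at […].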

Human IL-17A [2] = target: T1, Human IL-17A; assay: IL-17A enzyme-linked immunosorbent assay (competitive ELISA, IL-17A/IL-17Ra receptor-ligand binding); design: purchased Sino Biological Inc. 12047-H07B; details: human IL-17A coated plate, human IL-17Ra, read-out: IC50, inhibitory activity of compounds on human IL-17A
Procedure, shortened: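 Competitive ELISA with plates coated with human IL-17A at 0.2 μg/ml, blocked with 5% skim milk. Compound pre-incubated with IL-17A 10 min at 25 °C, then 16 nM IL-17Ra stock added for 30 min. Bound receptor detected by anti-Fc HRP/TMB, A450. IC50 from variable-slope fit of blank-corrected residual activity.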

SMILES	IC50 (Human IL-17A [1]) [nM]	IC50 (Human IL-17A [2]) [nM]
CCN1Cc2cc(NC(=O)[C@@H](NC(=O)c3ccnn3C(C)C)C(C3CC3)C3CC3)c(F)cc2-c2c(n[nH]c2C)CC1=O [compound 142]	≤ 100	≤ 50
CCn1nccc1C(=O)N[C@H](C(=O)Nc1cc2c(cc1F)-c1c(n[nH]c1C)CCN(CC(C)(F)F)C2)C(C1CC1)C1CC1 [compound 161]	≤ 100	≤ 50
Cc1[nH]nc2c1-c1cc(F)c(NC(=O)[C@@H](NC(=O)c3ccnn3C(C)C)C(C3CC3)C3CC3)cc1CN(CC(C)(F)F)CC2 [compound 160]	≤ 100	≤ 50
CCn1nccc1C(=O)N[C@H](C(=O)Nc1cc2c(cc1F)-c1c(n[nH]c1C)CCN(CC(F)F)C2)C(C1CC1)C1CC1 [compound 159]	≤ 100	≤ 50
CCn1nccc1C(=O)N[C@H](C(=O)Nc1cc2c(cc1F)-c1c(n[nH]c1C)CC(=O)N(C(C)C)C2)C(C1CC1)C1CC1 [compound 151]	≤ 100	≤ 50
Cc1[nH]nc2c1-c1cc(F)c(NC(=O)[C@@H](NC(=O)c3ccnn3C(C)C)C(C3CC3)C3CC3)cc1CN(C)C(=O)C2 [compound 132]	≤ 100	≤ 50
Cc1[nH]nc2c1-c1cc(F)c(NC(=O)[C@@H](NC(=O)c3ccnn3C(C)C)C(C3CC3)C3CC3)cc1CN(CC(F)F)C(=O)C2 [compound 144]	≤ 100	≤ 50
CCN1Cc2cc(NC(=O)[C@@H](NC(=O)c3ccnn3CC)C(C3CC3)C3CC3)c(F)cc2-c2c(n[nH]c2C)CC1=O [compound 143]	≤ 100	≤ 50
Cc1[nH]nc2c1-c1cc(F)c(NC(=O)[C@@H](NC(=O)c3ccnn3C(C)C)C(C3CC3)C3CC3)cc1CN(CC(F)(F)F)CC2 [compound 164]	≤ 100	≤ 50
CCN1CCc2n[nH]c(C)c2-c2cc(F)c(NC(=O)[C@@H](NC(=O)c3ccnn3C(C)C)C(C3CC3)C3CC3)cc2C1 [compound 156]	100 to 500	≤ 50
CCn1nccc1C(=O)N[C@H](C(=O)Nc1cc2c(cc1F)-c1c(n[nH]c1C)CC(=O)N(CC(C)(F)F)C2)C(C1CC1)C1CC1 [compound 149]	≤ 100	≤ 50
Cc1[nH]nc2c1-c1cc(F)c(NC(=O)[C@@H](NC(=O)c3ccnn3C(C)C)C(C3CC3)C3CC3)cc1CN(C(C)C)C(=O)C2 [compound 150]	≤ 100	≤ 50
Cc1[nH]nc2c1-c1cc(F)c(NC(=O)[C@@H](NC(=O)c3ccnn3C(C)C)C(C3CC3)C3CC3)cc1CN(C1CC1)CC2 [compound 165]	≤ 100	≤ 50
CCn1nccc1C(=O)N[C@H](C(=O)Nc1cc2c(cc1F)-c1c(n[nH]c1C)CC(=O)N(C)C2)C(C1CC1)C1CC1 [compound 133]	100 to 500	≤ 50
Cc1[nH]nc2c1-c1ccc(NC(=O)[C@@H](NC(=O)c3ccnn3C3CC3)C(C3CC3)C3CC3)cc1COCC2 [compound 6]	100 to 500	≤ 50
Cc1[nH]nc2c1-c1cc(F)c(NC(=O)[C@@H](NC(=O)c3ccnn3C(C)C)C(C3CC3)C3CC3)cc1CN(CC(F)F)CC2 [compound 158]	≤ 100	≤ 50
Cc1[nH]nc2c1-c1cc(F)c(NC(=O)[C@@H](NC(=O)c3ccnn3C(C)C)C(C3CC3)C3CC3)cc1CN(CC1CC1)C(=O)C2 [compound 153]	≤ 100	≤ 50
Cc1[nH]nc2c1-c1cc(F)c(NC(=O)[C@@H](NC(=O)c3ccnn3C(C)C)C(C3CC3)C3CC3)cc1CN(CC(F)(F)F)C(=O)C2 [compound 152]	≤ 100	≤ 50
Cc1[nH]nc2c1-c1cnc(NC(=O)[C@@H](NC(=O)c3ccnn3C[C@@H]3C[C@H]3F)C(C3CC3)C3CC3)cc1COCC2 [compound 125]	≤ 100	≤ 50
CCn1nccc1C(=O)N[C@H](C(=O)Nc1cc2c(cc1F)-c1c(n[nH]c1C)CC(=O)N(CC(F)F)C2)C(C1CC1)C1CC1 [compound 145]	≤ 100	≤ 50
CCn1nccc1C(=O)N[C@H](C(=O)Nc1ccc2c(c1)COCCc1n[nH]c(C)c1-2)C(C1CC1)C1CC1 [compound 3]	≤ 100	≤ 50
Cc1[nH]nc2c1-c1cc(F)c(NC(=O)[C@@H](NC(=O)c3ccnn3C(C)C)C(C3CC3)C3CC3)cc1CN(CC(C)(F)F)C(=O)C2 [compound 148]	≤ 100	≤ 50
Cc1[nH]nc2c1-c1cc(F)c(NC(=O)[C@@H](NC(=O)c3ccnn3C(C)C)C(C3CC3)C3CC3)cc1CN(C1CC1)C(=O)C2 [compound 136]	≤ 100	≤ 50
